Results from PubChem BioAssay (NCI).
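1) Cells in 96-well plates. 2) Compound, 48 h, 5 concentrations. 3) Linear interpolation between surrounding doses. 4) Unreached endpoint = highest concentration. GI50 marks 50% less growth. TGI is the concentration that stops growth completely.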

Assays:
Experiment in all cases: NCI anticancer screen, dose series, 48 h
MDA-MB-231 breast = system: MDA-MB-231 breast
MCF7 breast = system: MCF7 breast
OVCAR-4 ovarian = system: OVCAR-4 ovarian
SW-620 colon = system: SW-620 colon
SN12C renal = system: SN12C renal
MDA-MB-435 = system: MDA-MB-435
NCI-H23 lung = system: NCI-H23 lung
HL-60(TB) leukemia = system: HL-60(TB) leukemia
SK-OV-3 ovarian = system: SK-OV-3 ovarian
UO-31 renal = system: UO-31 renal
HT29 colon = system: HT29 colon
A498 renal = system: A498 renal
SK-MEL-5 melanoma = system: SK-MEL-5 melanoma
CCRF-CEM leukemia = system: CCRF-CEM leukemia
HCC-2998 colon = system: HCC-2998 colon
BT-549 breast = system: BT-549 breast
SF-295 CNS = system: SF-295 CNS
NCI-H460 lung = system: NCI-H460 lung
KM12 colon = system: KM12 colon
OVCAR-5 ovarian = system: OVCAR-5 ovarian
MALME-3M melanoma = system: MALME-3M melanoma
786-0 renal = system: 786-0 renal
SF-268 CNS = system: SF-268 CNS
T-47D breast = system: T-47D breast
HOP-62 NSCLC = system: HOP-62 NSCLC
NCI/ADR-RES ovarian = system: NCI/ADR-RES ovarian
SR leukemia = system: SR leukemia
RXF 393 renal = system: RXF 393 renal
SK-MEL-28 melanoma = system: SK-MEL-28 melanoma
PC-3 prostate = system: PC-3 prostate
HS 578T breast = system: HS 578T breast
HCT-15 colon = system: HCT-15 colon
MOLT-4 leukemia = system: MOLT-4 leukemia
TK-10 renal = system: TK-10 renal
NCI-H522 lung = system: NCI-H522 lung
K-562 leukemia = system: K-562 leukemia
M14 melanoma = system: M14 melanoma
OVCAR-3 ovarian = system: OVCAR-3 ovarian
DU-145 prostate = system: DU-145 prostate
SF-539 CNS = system: SF-539 CNS
HOP-92 NSCLC = system: HOP-92 NSCLC
LOX IMVI melanoma = system: LOX IMVI melanoma
HCT-116 colon = system: HCT-116 colon
IGROV1 ovarian = system: IGROV1 ovarian
A549 NSCLC = system: A549 NSCLC
RPMI-8226 leukemia = system: RPMI-8226 leukemia
OVCAR-8 ovarian = system: OVCAR-8 ovarian
SNB-75 CNS = system: SNB-75 CNS
UACC-257 melanoma = system: UACC-257 melanoma
SK-MEL-2 melanoma = system: SK-MEL-2 melanoma
UACC-62 melanoma = system: UACC-62 melanoma
COLO 205 colon = system: COLO 205 colon
NCI-H226 lung = system: NCI-H226 lung
ACHN renal = system: ACHN renal
SNB-19 CNS = system: SNB-19 CNS
U251 CNS = system: U251 CNS

COc1ccc(/C=C2\CN(Cc3cn(CCCNc4ccnc5cc(Cl)ccc45)nn3)C/C(=C\c3ccc(OC)c(OC)c3)C2=O)cc1OC
GI50 (MDA-MB-231 breast): 1700 nM
TGI (MDA-MB-231 breast): 3480 nM
GI50 (MCF7 breast): 503 nM
TGI (MCF7 breast): 2450 nM
GI50 (OVCAR-4 ovarian): 1110 nM
TGI (OVCAR-4 ovarian): 18100 nM
GI50 (SW-620 colon): 455 nM
TGI (SW-620 colon): 1750 nM
GI50 (SN12C renal): 1330 nM
TGI (SN12C renal): 3120 nM
GI50 (MDA-MB-435): 1120 nM
TGI (MDA-MB-435): 5320 nM
GI50 (NCI-H23 lung): 2360 nM
TGI (NCI-H23 lung): 7260 nM
GI50 (HL-60(TB) leukemia): 685 nM
TGI (HL-60(TB) leukemia): 4030 nM
GI50 (SK-OV-3 ovarian): 2450 nM
TGI (SK-OV-3 ovarian): 11100 nM
GI50 (UO-31 renal): 1530 nM
TGI (UO-31 renal): 2880 nM
GI50 (HT29 colon): 663 nM
TGI (HT29 colon): 2380 nM
GI50 (A498 renal): 1170 nM
TGI (A498 renal): 2580 nM
GI50 (SK-MEL-5 melanoma): 2710 nM
TGI (SK-MEL-5 melanoma): 10200 nM
GI50 (CCRF-CEM leukemia): 571 nM
TGI (CCRF-CEM leukemia): 8650 nM
GI50 (HCC-2998 colon): 1410 nM
TGI (HCC-2998 colon): 2900 nM
GI50 (BT-549 breast): 1810 nM
TGI (BT-549 breast): 3790 nM
GI50 (SF-295 CNS): 2080 nM
TGI (SF-295 CNS): 4100 nM
GI50 (NCI-H460 lung): 806 nM
TGI (NCI-H460 lung): 2120 nM
GI50 (KM12 colon): 304 nM
TGI (KM12 colon): 1070 nM
GI50 (OVCAR-5 ovarian): 2680 nM
TGI (OVCAR-5 ovarian): 6420 nM
GI50 (MALME-3M melanoma): 1750 nM
TGI (MALME-3M melanoma): 3540 nM
GI50 (786-0 renal): 1950 nM
TGI (786-0 renal): 4390 nM
GI50 (SF-268 CNS): 743 nM
TGI (SF-268 CNS): 3090 nM
GI50 (T-47D breast): 2420 nM
TGI (T-47D breast): 9420 nM
GI50 (HOP-62 NSCLC): 2420 nM
TGI (HOP-62 NSCLC): 4540 nM
GI50 (NCI/ADR-RES ovarian): > 100000 nM
TGI (NCI/ADR-RES ovarian): > 100000 nM
GI50 (SR leukemia): 382 nM
TGI (SR leukemia): 12000 nM
GI50 (RXF 393 renal): 1560 nM
TGI (RXF 393 renal): 3010 nM
GI50 (SK-MEL-28 melanoma): 2420 nM
TGI (SK-MEL-28 melanoma): 8700 nM
GI50 (PC-3 prostate): 843 nM
TGI (PC-3 prostate): 3220 nM
GI50 (HS 578T breast): 1990 nM
TGI (HS 578T breast): 9970 nM
GI50 (HCT-15 colon): 2030 nM
TGI (HCT-15 colon): 5020 nM
GI50 (MOLT-4 leukemia): 1390 nM
TGI (MOLT-4 leukemia): 6270 nM
GI50 (TK-10 renal): 2950 nM
TGI (TK-10 renal): 7920 nM
GI50 (NCI-H522 lung): 1320 nM
TGI (NCI-H522 lung): 3060 nM
GI50 (K-562 leukemia): 459 nM
TGI (K-562 leukemia): 3640 nM
GI50 (M14 melanoma): 2590 nM
TGI (M14 melanoma): 9680 nM
GI50 (OVCAR-3 ovarian): 463 nM
TGI (OVCAR-3 ovarian): 1680 nM
GI50 (DU-145 prostate): 1100 nM
TGI (DU-145 prostate): 2310 nM
GI50 (SF-539 CNS): 1990 nM
TGI (SF-539 CNS): 4760 nM
GI50 (HOP-92 NSCLC): 1450 nM
TGI (HOP-92 NSCLC): 5190 nM
GI50 (LOX IMVI melanoma): 1080 nM
TGI (LOX IMVI melanoma): 2430 nM
GI50 (HCT-116 colon): 577 nM
TGI (HCT-116 colon): 2100 nM
GI50 (IGROV1 ovarian): 1050 nM
TGI (IGROV1 ovarian): 2410 nM
GI50 (A549 NSCLC): 1710 nM
TGI (A549 NSCLC): 4110 nM
GI50 (RPMI-8226 leukemia): 1460 nM
TGI (RPMI-8226 leukemia): 5650 nM
GI50 (OVCAR-8 ovarian): 810 nM
TGI (OVCAR-8 ovarian): 15400 nM
GI50 (SNB-75 CNS): 1710 nM
TGI (SNB-75 CNS): 6090 nM
GI50 (UACC-257 melanoma): 2240 nM
TGI (UACC-257 melanoma): 12000 nM
GI50 (SK-MEL-2 melanoma): 2320 nM
TGI (SK-MEL-2 melanoma): 6840 nM
GI50 (UACC-62 melanoma): 1490 nM
TGI (UACC-62 melanoma): 3160 nM
GI50 (COLO 205 colon): 1030 nM
TGI (COLO 205 colon): 2390 nM
GI50 (NCI-H226 lung): 1970 nM
TGI (NCI-H226 lung): 4740 nM
GI50 (ACHN renal): 1640 nM
TGI (ACHN renal): 3110 nM
GI50 (SNB-19 CNS): 1850 nM
TGI (SNB-19 CNS): 7620 nM
GI50 (U251 CNS): 1190 nM
TGI (U251 CNS): 3880 nM
